Reference: patent publication US10377718B2, “Apelin receptor (APJ) agonists and uses thereof” (Research Triangle Institute, priority 2014, dated 2019)

Target: T1, apelin receptor (APJ) (Homo sapiens, UniProt P35414)
T1 sequence (P35414 1-380): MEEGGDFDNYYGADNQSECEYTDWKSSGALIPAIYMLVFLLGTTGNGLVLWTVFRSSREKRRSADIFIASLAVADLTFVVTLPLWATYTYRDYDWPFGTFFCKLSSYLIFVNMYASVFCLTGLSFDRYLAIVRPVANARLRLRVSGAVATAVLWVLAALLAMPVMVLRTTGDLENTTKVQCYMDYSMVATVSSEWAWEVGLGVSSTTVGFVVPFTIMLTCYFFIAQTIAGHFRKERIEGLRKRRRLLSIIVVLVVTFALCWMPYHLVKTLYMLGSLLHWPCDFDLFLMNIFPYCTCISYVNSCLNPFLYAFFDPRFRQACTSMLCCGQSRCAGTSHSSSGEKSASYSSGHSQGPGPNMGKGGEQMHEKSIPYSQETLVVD
Test: in vitro apelin agonist activity (methods of Giddings et al., Apelin-13 as positive control)
Type: cell-based
Conditions: apelin agonist activity, Giddings et al. method; read-out: agonist activity (EC50)
Source text: The compounds above were studied for their in vitro activity as apelin agonists using the methods described by Giddings et al. Giddings et al., 2010 Int J High Thro Screen. 1:39-47, the contents of which are hereby incorporated by reference in its entirety.

`CCCNC(=O)[C@H](CCc1ccccc1)NC(=O)c1cc(-c2c(OC)cccc2OC)n(CC(C)C)n1` [compound 225] was tested, and the EC50 was less than 10 µM.

With `COc1cccc(OC)c1-c1cc(C(=O)N[C@@H](CCc2ccccc2)C(=O)N2CCCC2)nn1CC(C)C` [compound 226] the EC50 was less than 10 µM.

For `COC(=O)CNC(=O)C[C@H](CC(C)C)N(C)C(=O)c1cc(-c2c(OC)cccc2OC)n(CC(C)C)n1` [compound 238], the EC50 was less than 10 µM.

Compound `COC(=O)CNC(=O)C[C@H](CCCC1CCCCC1)NC(=O)c1cc(-c2c(OC)cccc2OC)n(CC(C)C)n1` [compound 242] has an EC50 of less than 10 µM.

`CCC(O)CNC(=O)C[C@H](CCN1CCCCC1)NC(=O)c1cc(-c2c(OC)cccc2OC)n(CC(C)C)n1` (stereo partly shown) [compound 245] gave an EC50 of less than 10 µM.

`COc1cccc(OC)c1-c1cc(C(=O)N[C@@H](CCN2CCCCC2)CC(=O)NC2CCC2)nn1CC(C)C` [compound 247] showed an EC50 of less than 10 µM.

`COCCNC(=O)C[C@H](CCN1CCCCC1)NC(=O)c1cc(-c2c(OC)cccc2OC)n(CC(C)C)n1` [compound 249] gave an EC50 of less than 10 µM.

In the case of `COc1cccc(OC)c1-c1cc(C(=O)N[C@@H](CCN2CCCCC2)CC(=O)O)nn1CC(C)C` [compound 251], the EC50 is reported as less than 10 µM.

In the case of `COCCN(C)C(=O)[C@H](CCC1CCCCC1)NC(=O)c1cc(-c2c(OC)cccc2OC)n(CC(C)C)n1` [compound 256], the EC50 is reported as less than 10 µM.

`COc1cccc(OC)c1-c1cc(C(=O)NC(CC(=O)O)C2CCCCC2)nn1-c1ccc(F)cc1` (stereo not shown) [compound 257] was tested, and the EC50 was less than 10 µM.

With `COC(=O)CNC(=O)CC(NC(=O)c1cc(-c2c(OC)cccc2OC)n(-c2ccc(F)cc2)n1)C1CCCCC1` (stereo not shown) [compound 258] the EC50 was less than 10 µM.

Compound `C=C[C@@H](CC(=O)NC1CCC1)NC(=O)c1cc(-c2c(OC)cccc2OC)n(C2CCCC2)n1` [compound 263] has an EC50 of less than 10 µM.

`COc1cccc(OC)c1-c1cc(C(=O)N[C@@H](CCC2CCCCC2)Cc2nnn[nH]2)nn1CC(C)C` [compound 265] showed an EC50 of less than 10 µM.
